Results as given in US20110070232A1, “Combination Therapy with an Antitumor Alkaloid” (Pharma Mar, S.A., priority 2008, published 2011).
≈ marks a conversion by molar mass, not a printed value. Like-named read-outs stand apart in the source and are kept apart here.

Legend:
[1] = tested on: MCF-7 (breast cancer) cell line; test: IC50 determination, MIT (tetrazolium) assay, 72 h (Example 18); assay type: cell-based; conditions: Homo sapiens, MCF7; MCF-7, 72 hours of drug exposure
Experimental: (§1) Before plating, cell cultures were trypsinized and cell number estimated using an automated flow cytometer.
(§2) Cells were harvested and seeded in 96 well microtiter plates at the appropriate cell density (5,000-10,000 cells) in 150 μL of media and incubated for 24 hours to allow the cells to attach before drug addition.
(§3) After the incubation period (72 hours), 50 μL of MIT solution was added to each microtiter well and incubated for further 8 hours at 37° C. The culture medium was then removed and 50 μl, of DMSO were added to dissolve the MIT crystals. Optical densities were read at 540 nm on spectrophotometer microplate reader.
(§4) IC50 values were calculated from an average of two to four assays for each of the test agents.

[2] = tested on: MDA-MB-231 (breast cancer) cell line; test: as above; assay type: cell-based; conditions: Homo sapiens; MDA-MB-231, 72 hours of drug exposure
Experimental: as §1, §2, §3, §4

[3] = tested on: AGS human gastric carcinoma cell line; test: IC50 determination, MTS assay, 72 h (Example 1); assay type: cell-based; conditions: Homo sapiens, 72 hours of drug exposure, read-out: IC50
Experimental: (§5) The human gastric carcinoma cell lines selected for this assay were the following: Hs746T, HGC-27, and AGS cell lines. Hs746T and AGS cell lines were grown in Dulbecco's modified Eagle's medium (DMEM) supplemented with 10% Fetal Bovine Serum (FBS), 1.5 g/L sodium bicarbonate, 4.5 g/L glucose and 4 mM L-glutamine. HGC-27 cell line was grown in Iscove's modified Dulbecco's medium (IMDM) supplemented with 20% FBS and 2 mM L-glutamine.
(§6) The day before plating, the cells were fed with fresh, complete growth media. On the harvest (plating) day, cells were counted by Trypan Blue exclusion staining method.
(§7) Cells were harvested and seeded in 96 well microtiter plates at 10,000 cells density in 150 μL of media and incubated for 24 hours to allow the cells to attach before drug addition. To collect reference data, the MTS assay was done on untreated cells at time 0 (after incubation of cells for 24 hours).
(§8) The cytotoxic effect was measured by the MTS Assay (Tetrazolium), which is a colorimetric method for determining the number of viable cells. After the incubation period (24 hours for the Day 0 plate and 72 hours for the Test and Control plates), 25 μL of MTS+PMS solution was added to each microtiter well and incubated for 4 hours at 37° C. Plates were then removed from incubator and placed on plate shaker for 5 minutes (covered with aluminum foil for protection from light). Optical densities were read at 490 nm on spectrophotometer plate reader.
as §4

[4] = tested on: Hs746T human gastric carcinoma cell line; test: IC50 determination, MTS assay, 72 h (Example 1); assay type: cell-based; conditions: Homo sapiens, 72 hours of drug exposure, read-out: IC50
Experimental: as §5, §6, §7, §8, §4

[5] = tested on: HGC-27 human gastric carcinoma cell line; test: IC50 determination, MTS assay, 72 h (Example 1); assay type: cell-based; conditions: Homo sapiens, 72 hours of drug exposure, read-out: IC50
Experimental: as §5, §6, §7, §8, §4

Hs746T tumors = assay type: in vivo, mice; conditions: for % Inhibition: PM00104 0.9 and doxorubicin 6 mg/kg/day
Excerpt: (§9) Female athymic nude mice (Harlan Sprague Dawley, Madison, Wis.) were utilized for all experiments. Animals were housed in ventilated rack caging with food and water ad libitum. The mice were acclimated for at least 5 days prior to tumor implantation with a tumor cell suspension.
The tumor model used in these studies was Hs746T cell line, which was obtained from the ATCC (Manassas, Va.).
Treatments were initiated on DPI 15.
5-FU was provided as a solution which was further diluted with water for injection.
(§10) Tumor size measurements were recorded twice weekly from the treatment initiation until the termination of the study.
(§11) Mean, standard deviation and standard error of the mean were determined for tumor volume for all animal groups at all assessments. Student's t test was performed on tumor volumes at each measurement day, including at the end of the study, to determine whether there were any statistically significant differences between combination treatment groups and single monotherapy treatment groups.

MRI-H-254 tumors = assay type: in vivo, mice
Experimental: as §9, with “with” for “with a”, “fragments. The Vehicle Control group contained 11 mice, groups 2-6 contained 8 mice/group, and the rest of groups contained 9 mice/group.” for “cell suspension.”
This cell line was grown and implanted to the animals as described in Example 11.
Tumor measurements were determined as disclosed in Example 4. […] Treatments were initiated on DPI 17.
PM00104 was provided in the form of vials of lyophilized PM00104 powder which was reconstituted with water for injection.
as §10, §11
The definition and criteria for the evaluation of potentiation and the degree of additivity for the combination therapy were the same as those disclose in Example 4.

[6] = PM00104 0.9, 5-FU 50 (DPI 15) then 100 (DPI 22 & 29), irinotecan 20, doxorubicin 6 mg/kg/day
[7] = PM00104 0.90 IV, doxorubicin 6 IP, paclitaxel 12.5 IP mg/kg/day (G2, G5, G6, G7, G8)

Question: For `COc1cccc2c1C(=O)c1c(O)c3c(c(O)c1C2=O)C[C@@](O)(C(=O)CO)C[C@@H]3O[C@H]1C[C@H](N)[C@H](O)[C@H](C)O1` [Doxorubicin, doxorubicin], which IC50 [1] is on record?
Answer: 4000 nM

Question: What about the IC50 [2] of the same compound?
Answer: 1900 nM

Question: And the IC50 [3]?
Answer: 0.156 µg/mL (≈ 0.287 µM)

Question: What about the IC50 [4] of the same compound?
Answer: 8.97 µg/mL (≈ 16.5 µM)

Question: What about the IC50 [5] of the same compound?
Answer: 0.177 µg/mL (≈ 0.326 µM)

Question: What about the “% T/C on day 15” value (Hs746T tumors; [6]) of the same compound?
Answer: 104.2%

Question: And the “% T/C on day 19” value (Hs746T tumors; [6])?
Answer: 79.8%

Question: What about the “% T/C on day 26” value (Hs746T tumors; [6]) of the same compound?
Answer: 48.9%

Question: What about the “% T/C on day 29” value (Hs746T tumors; [6]) of the same compound?
Answer: 40.2%

Question: And the “% T/C on day 33” value (Hs746T tumors; [6])?
Answer: 51.4%

Question: What about the “% Inhibition” value (Hs746T tumors; day 15) of the same compound?
Answer: −4.2%

Question: And the “% Inhibition” value (Hs746T tumors; day 19)?
Answer: 20.2%

Question: What about the “% Inhibition” value (Hs746T tumors; day 22) of the same compound?
Answer: 52.6%

Question: And the “% Inhibition” value (Hs746T tumors; day 26)?
Answer: 51.1%

Question: And the “% Inhibition” value (Hs746T tumors; day 29)?
Answer: 59.8%

Question: And the “% Inhibition” value (Hs746T tumors; day 33)?
Answer: 48.6%

Question: What about the “% T/C on day 17” value (MRI-H-254 tumors; [7]) of the same compound?
Answer: 98.2%

Question: What about the “% T/C on day 20” value (MRI-H-254 tumors; [7]) of the same compound?
Answer: 93.5%

Question: What about the “% T/C on day 24” value (MRI-H-254 tumors; [7]) of the same compound?
Answer: 76.2%

Question: What about the “% T/C on day 27” value (MRI-H-254 tumors; [7]) of the same compound?
Answer: 64.4%

Question: What about the “% T/C on day 32” value (MRI-H-254 tumors; [7]) of the same compound?
Answer: 56.3%

Question: And the “% T/C on day 35” value (MRI-H-254 tumors; [7])?
Answer: 24.8%

Question: And the “% T/C on day 39” value (MRI-H-254 tumors; [7])?
Answer: 19.7%

Question: What about the “% T/C on day 47” value (MRI-H-254 tumors; [7]) of the same compound?
Answer: 15.7%

Question: What about the “% Inhibition” value (MRI-H-254 tumors; day 14, PM00104 0.23, doxorubicin 6, paclitaxel 12.5 mg/kg/day) of the same compound?
Answer: 1.8%

Question: What about the “% Inhibition” value (MRI-H-254 tumors; day 14, PM00104 0.45, doxorubicin 6, paclitaxel 12.5 mg/kg/day) of the same compound?
Answer: 1.8%

Question: And the “% Inhibition” value (MRI-H-254 tumors; day 14, PM00104 0.9 and doxorubicin 6 mg/kg/day)?
Answer: 1.8%

Question: And the “% Inhibition” value (MRI-H-254 tumors; day 20, PM00104 0.23, doxorubicin 6, paclitaxel 12.5 mg/kg/day)?
Answer: 6.5%

Question: And the “% Inhibition” value (MRI-H-254 tumors; day 20, PM00104 0.45, doxorubicin 6, paclitaxel 12.5 mg/kg/day)?
Answer: 6.5%

Question: And the “% Inhibition” value (MRI-H-254 tumors; day 20, PM00104 0.9 and doxorubicin 6 mg/kg/day)?
Answer: 6.5%

Question: And the “% Inhibition” value (MRI-H-254 tumors; day 24, PM00104 0.23, doxorubicin 6, paclitaxel 12.5 mg/kg/day)?
Answer: 23.8%

Question: And the “% Inhibition” value (MRI-H-254 tumors; day 24, PM00104 0.45, doxorubicin 6, paclitaxel 12.5 mg/kg/day)?
Answer: 23.8%

Question: And the “% Inhibition” value (MRI-H-254 tumors; day 24, PM00104 0.9 and doxorubicin 6 mg/kg/day)?
Answer: 23.8%

Question: And the “% Inhibition” value (MRI-H-254 tumors; day 27, PM00104 0.23, doxorubicin 6, paclitaxel 12.5 mg/kg/day)?
Answer: 35.6%

Question: And the “% Inhibition” value (MRI-H-254 tumors; day 27, PM00104 0.45, doxorubicin 6, paclitaxel 12.5 mg/kg/day)?
Answer: 35.6%

Question: And the “% Inhibition” value (MRI-H-254 tumors; day 27, PM00104 0.9 and doxorubicin 6 mg/kg/day)?
Answer: 35.6%

Question: What about the “% Inhibition” value (MRI-H-254 tumors; day 32, PM00104 0.23, doxorubicin 6, paclitaxel 12.5 mg/kg/day) of the same compound?
Answer: 43.7%

Question: And the “% Inhibition” value (MRI-H-254 tumors; day 32, PM00104 0.45, doxorubicin 6, paclitaxel 12.5 mg/kg/day)?
Answer: 43.7%

Question: What about the “% Inhibition” value (MRI-H-254 tumors; day 32, PM00104 0.9 and doxorubicin 6 mg/kg/day) of the same compound?
Answer: 43.7%

Question: And the “% Inhibition” value (MRI-H-254 tumors; day 35, PM00104 0.23, doxorubicin 6, paclitaxel 12.5 mg/kg/day)?
Answer: 75.2%

Question: What about the “% Inhibition” value (MRI-H-254 tumors; day 35, PM00104 0.45, doxorubicin 6, paclitaxel 12.5 mg/kg/day) of the same compound?
Answer: 75.2%

Question: What about the “% Inhibition” value (MRI-H-254 tumors; day 35, PM00104 0.9 and doxorubicin 6 mg/kg/day) of the same compound?
Answer: 75.2%

Question: And the “% Inhibition” value (MRI-H-254 tumors; day 39, PM00104 0.23, doxorubicin 6, paclitaxel 12.5 mg/kg/day)?
Answer: 80.3%

Question: What about the “% Inhibition” value (MRI-H-254 tumors; day 39, PM00104 0.45, doxorubicin 6, paclitaxel 12.5 mg/kg/day) of the same compound?
Answer: 80.3%

Question: What about the “% Inhibition” value (MRI-H-254 tumors; day 39, PM00104 0.9 and doxorubicin 6 mg/kg/day) of the same compound?
Answer: 80.3%

Question: And the “% Inhibition” value (MRI-H-254 tumors; day 47, PM00104 0.23, doxorubicin 6, paclitaxel 12.5 mg/kg/day)?
Answer: 84.3%

Question: And the “% Inhibition” value (MRI-H-254 tumors; day 47, PM00104 0.9 and doxorubicin 6 mg/kg/day)?
Answer: 84.3%
